Data: patent US5808087A, “Sulfonium salts of pyrrolylbenzimidazoles” (priority 1995, dated 1998)
In brackets after ≈: the same amount, converted by molar mass.

What was measured:
[1] = test system: Colon 26 mouse colon cancer cells; experiment: In vivo antitumor activity, subcutaneously implanted Colon 26 (Test Example 2); set-up: species or system mouse (female CDF1 mice); settings: Colon 26 s.c. in CDF1 mice, i.v. on day 1, tumors weighed day 15; for 50% T/C: 21600 min
Description: A cell suspension of Colon 26 mouse colon cancer cells (1×10^7 cells/ml) in HBSS (Hanks' Balanced Salt Solution) was prepared. This cell suspension (0.1 ml each) was implanted subcutaneously into the lateral region of female CDF1 mice (day 0). One day after the tumor cell injection (day 1), the body weight of the mice was measured, and then solutions of test compounds (5% glucose solutions containing 5% Tween 80) were injected intravenously into the tails of the mice. On day 15, the resulting tumors were taken out and weighed.
Percent average weights of tumors of animals in the test groups, in which the compounds were injected, with respect to those in the control group, in which no compounds were injected, were calculated and given as T/C values.

[2] = Stability of compounds (1), remaining rate by HPLC after 3 days (Test Example 3); assay type: physicochemical
Description: In order to compare stabilities of the compounds, remaining rates of compounds were obtained by incubating the compounds at about 4° C. and 50° C. for 3 days and measuring comparative peak areas on HPLC (Table 4).

[3] = test system: Mouse B16 melanoma cells; experiment: In vitro tumor cell growth suppressing activity (Test Example 1); assay type: cell-based; settings: 37° C., 3 days
Description: Antitumor activity of the above-mentioned compounds was tested as follows. Mouse B16 melanoma cells were plated on a 96-well culture plate, test compounds were added to the cells one day after, and then the plate was incubated at 37° C. for 3 days under a 5%-CO2 atmosphere. According to the method described in Cancer Res. 48, 589-601, 1988, the concentrations of compounds required to inhibit cell growth by 50% were obtained. The activity is expressed by the concentrations (micrograms/milliliter). The result with distamycin is also shown for comparison.

[4] = Stability of compounds (2), remaining rate by HPLC after one month at 60° C. (Test Example 4); assay type: physicochemical
Description: Stability of these compounds was investigated. As an index of stability, remaining rates of compounds were obtained by measuring remaining compounds after heating at 60° C. for one month. The remaining rates were measured by HPLC.

For `Cn1cc(NC(=O)CC[S+](C)C)cc1-c1nc2cc(C(=O)Nc3ccc(N(CCCl)CCCl)cc3)ccc2[nH]1` [1*^1], the “50% T/C” value [1] was 7.19 mg/kg, the remaining at 72 h ([2]; 50° C.) was 100% and the “50% Suppressing Concentration” value [3] was 0.71 µg/mL. For the same molecule, the remaining at 730 h [4] was 96.7%.

For `Cn1cc(NC(=O)CC[S+](C)C)cc1-c1nc2cc(C(=O)Nc3ccc(N(CCCl)CCCl)cc3)ccc2[nH]1` [25*^2], the “50% T/C” value [1] was 9.35 mg/kg, the “50% Suppressing Concentration” value [3] was 0.99 µg/mL and the Remaining rate ([4]; 43800 min) was 99.4%.

In the case of `COc1cccc2c1C(=O)c1c(O)c3c(c(O)c1C2=O)C[C@@](O)(C(=O)CO)C[C@@H]3O[C@H]1C[C@H](N)[C@H](O)[C@H](C)O1` [Adriamycin, adriamycin, reference compound], the ED50 ([1]; Mus musculus, iv, 360 h, read-out: 50% T/C) is reported as 12.4 mg/kg.

`Cn1cc(NC(=O)c2cc(NC(=O)c3cc(NC=O)cn3C)cn2C)cc1C(=O)NCCC(=N)N` [Distamycin, distamycin, reference compound] gave an IC50 ([3]; Mus musculus, 72 h, read-out: 50% Suppressing Concentration) of 36 µg/mL (≈ 74.8 µM).

In the case of `Cn1cc(NC(=O)CC[S+](C)C)cc1-c1nc2cc(C(=O)Nc3ccc(N(CCCl)CCCl)cc3)ccc2[nH]1` [IODIDE], the remaining at 72 h ([2]; 4° C.) is reported as 99% and the Remaining rate ([2]; 50° C., 4320 min) is reported as 83%.
